Results published in paper PMC8550792, “Evolution of kinase polypharmacology across HSP90 drug discovery” (Cell Chemical Biology, 2021).

Assays:
Experiment in all cases: biochemical
Assay type in all cases: biochemical
382 unique human kinases [1] = target: T1, 382 unique human kinases (Homo sapiens, UniProt Q96QT4); conditions: kinase TRPM7/CHAK1, compound 10 uM; for remaining activity at 10 µM: read-out: % Enzyme Activity (relative to DMSO controls)
T1 construct: purchased Reaction Biology (HotSpot contract assay)

382 unique human kinases [2] = target: T2, 382 unique human kinases (Homo sapiens, UniProt Q12866, A708S); conditions: c-MER (A708S), 10 uM; for remaining activity at 10 µM: read-out: % Enzyme Activity (relative to DMSO controls)
T2 construct: purchased Reaction Biology (HotSpot contract assay)
T2 sequence (Q12866 21-999 A708S): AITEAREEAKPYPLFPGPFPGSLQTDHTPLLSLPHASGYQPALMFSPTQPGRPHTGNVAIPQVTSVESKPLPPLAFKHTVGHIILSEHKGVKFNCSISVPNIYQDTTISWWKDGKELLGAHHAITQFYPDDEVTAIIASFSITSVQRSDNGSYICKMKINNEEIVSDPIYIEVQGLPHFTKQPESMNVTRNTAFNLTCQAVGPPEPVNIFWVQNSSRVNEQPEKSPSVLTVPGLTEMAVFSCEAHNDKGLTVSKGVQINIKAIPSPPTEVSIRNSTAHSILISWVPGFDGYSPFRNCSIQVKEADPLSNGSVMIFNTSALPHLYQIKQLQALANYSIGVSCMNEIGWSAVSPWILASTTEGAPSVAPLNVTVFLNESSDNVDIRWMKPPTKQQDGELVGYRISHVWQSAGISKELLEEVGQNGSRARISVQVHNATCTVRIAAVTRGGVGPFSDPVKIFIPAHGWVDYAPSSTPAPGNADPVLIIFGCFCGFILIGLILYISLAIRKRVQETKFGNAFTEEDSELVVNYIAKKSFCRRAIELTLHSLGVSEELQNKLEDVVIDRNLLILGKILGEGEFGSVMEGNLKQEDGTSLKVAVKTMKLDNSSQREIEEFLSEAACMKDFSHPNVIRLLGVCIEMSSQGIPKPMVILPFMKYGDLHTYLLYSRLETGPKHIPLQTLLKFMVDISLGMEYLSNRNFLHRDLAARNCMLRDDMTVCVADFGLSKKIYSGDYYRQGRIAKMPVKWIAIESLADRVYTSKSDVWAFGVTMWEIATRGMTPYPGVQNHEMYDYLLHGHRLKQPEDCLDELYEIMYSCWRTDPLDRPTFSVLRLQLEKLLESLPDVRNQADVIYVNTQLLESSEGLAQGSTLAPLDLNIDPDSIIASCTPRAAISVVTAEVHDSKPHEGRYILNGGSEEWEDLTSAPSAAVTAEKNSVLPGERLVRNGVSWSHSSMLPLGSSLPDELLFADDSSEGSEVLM

382 unique human kinases [3] = target: T3, 382 unique human kinases (Homo sapiens, UniProt P36507); conditions: MEK2, 10 uM; for remaining activity at 10 µM: read-out: % Enzyme Activity (relative to DMSO controls)
T3 construct: purchased Reaction Biology (HotSpot contract assay)
T3 sequence (P36507 whole entry): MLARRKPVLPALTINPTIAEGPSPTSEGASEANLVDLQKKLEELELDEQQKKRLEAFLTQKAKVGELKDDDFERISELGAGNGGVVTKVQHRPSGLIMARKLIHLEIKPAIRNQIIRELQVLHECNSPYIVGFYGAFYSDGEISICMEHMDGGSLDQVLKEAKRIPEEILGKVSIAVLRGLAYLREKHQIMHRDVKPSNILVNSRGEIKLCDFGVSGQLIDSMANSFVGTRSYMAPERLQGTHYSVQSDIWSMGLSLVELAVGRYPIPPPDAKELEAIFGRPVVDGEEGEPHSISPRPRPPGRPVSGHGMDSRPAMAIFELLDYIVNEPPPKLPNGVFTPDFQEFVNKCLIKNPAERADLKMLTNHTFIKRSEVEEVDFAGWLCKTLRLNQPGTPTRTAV

382 unique human kinases [4] = target: T4, 382 unique human kinases (Homo sapiens, UniProt P09619); conditions: kinase PDGFRb, compound 10 uM; for remaining activity at 10 µM: read-out: % Enzyme Activity (relative to DMSO controls)
T4 construct: purchased Reaction Biology (HotSpot contract assay)
T4 sequence (P09619 33-1106): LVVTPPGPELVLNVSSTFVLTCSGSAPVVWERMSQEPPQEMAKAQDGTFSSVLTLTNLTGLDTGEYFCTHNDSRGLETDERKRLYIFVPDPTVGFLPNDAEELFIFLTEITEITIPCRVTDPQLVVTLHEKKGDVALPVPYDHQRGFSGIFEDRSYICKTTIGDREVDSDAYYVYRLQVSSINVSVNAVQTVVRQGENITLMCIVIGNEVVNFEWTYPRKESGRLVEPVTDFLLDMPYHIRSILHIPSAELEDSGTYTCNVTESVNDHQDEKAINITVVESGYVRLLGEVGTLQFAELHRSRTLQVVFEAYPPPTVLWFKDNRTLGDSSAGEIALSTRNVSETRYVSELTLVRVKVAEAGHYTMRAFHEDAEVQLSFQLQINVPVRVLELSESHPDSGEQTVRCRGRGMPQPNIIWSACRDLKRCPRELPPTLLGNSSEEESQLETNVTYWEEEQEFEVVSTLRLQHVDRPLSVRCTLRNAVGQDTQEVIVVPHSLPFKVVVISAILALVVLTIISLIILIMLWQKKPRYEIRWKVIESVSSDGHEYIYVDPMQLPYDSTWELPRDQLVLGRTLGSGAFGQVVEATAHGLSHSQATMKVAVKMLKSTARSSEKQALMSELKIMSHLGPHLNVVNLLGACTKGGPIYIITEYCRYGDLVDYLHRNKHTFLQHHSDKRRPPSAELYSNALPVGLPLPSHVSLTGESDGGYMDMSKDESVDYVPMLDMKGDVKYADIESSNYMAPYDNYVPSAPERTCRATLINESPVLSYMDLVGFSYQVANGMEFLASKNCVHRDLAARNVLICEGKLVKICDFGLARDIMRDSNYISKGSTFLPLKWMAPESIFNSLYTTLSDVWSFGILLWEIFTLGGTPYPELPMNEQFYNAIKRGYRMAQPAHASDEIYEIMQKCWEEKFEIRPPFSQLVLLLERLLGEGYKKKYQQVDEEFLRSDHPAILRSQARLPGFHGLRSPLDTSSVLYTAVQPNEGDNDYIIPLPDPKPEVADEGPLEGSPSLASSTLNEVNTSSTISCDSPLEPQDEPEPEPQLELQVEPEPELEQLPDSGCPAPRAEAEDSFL

382 unique human kinases [5] = target: T5, 382 unique human kinases (Homo sapiens, UniProt Q9Y6E0); conditions: MST3/STK24, [ATP] 20 µM, compound 10 uM; for remaining activity at 10 µM: read-out: % Enzyme Activity (relative to DMSO controls)
T5 construct: purchased Reaction Biology (HotSpot contract assay)
T5 sequence (Q9Y6E0 whole entry): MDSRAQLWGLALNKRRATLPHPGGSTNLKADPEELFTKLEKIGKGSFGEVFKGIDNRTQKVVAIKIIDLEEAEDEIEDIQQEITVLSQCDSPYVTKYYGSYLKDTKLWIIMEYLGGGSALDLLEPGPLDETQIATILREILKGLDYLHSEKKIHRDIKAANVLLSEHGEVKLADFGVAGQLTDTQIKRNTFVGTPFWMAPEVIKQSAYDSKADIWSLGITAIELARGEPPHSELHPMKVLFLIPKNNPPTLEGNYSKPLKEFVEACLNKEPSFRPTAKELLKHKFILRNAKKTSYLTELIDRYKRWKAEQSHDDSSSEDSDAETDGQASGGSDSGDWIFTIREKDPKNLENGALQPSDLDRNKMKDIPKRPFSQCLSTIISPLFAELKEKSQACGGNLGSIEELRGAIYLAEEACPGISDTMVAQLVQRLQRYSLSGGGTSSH

382 unique human kinases [6] = target: T6, 382 unique human kinases (Homo sapiens, UniProt O94806); conditions: PKCnu/PRKD3, [ATP] 30 µM, compound 10 uM; for remaining activity at 10 µM: read-out: % Enzyme Activity (relative to DMSO controls)
T6 construct: purchased Reaction Biology (HotSpot contract assay)
T6 sequence (O94806 1-890): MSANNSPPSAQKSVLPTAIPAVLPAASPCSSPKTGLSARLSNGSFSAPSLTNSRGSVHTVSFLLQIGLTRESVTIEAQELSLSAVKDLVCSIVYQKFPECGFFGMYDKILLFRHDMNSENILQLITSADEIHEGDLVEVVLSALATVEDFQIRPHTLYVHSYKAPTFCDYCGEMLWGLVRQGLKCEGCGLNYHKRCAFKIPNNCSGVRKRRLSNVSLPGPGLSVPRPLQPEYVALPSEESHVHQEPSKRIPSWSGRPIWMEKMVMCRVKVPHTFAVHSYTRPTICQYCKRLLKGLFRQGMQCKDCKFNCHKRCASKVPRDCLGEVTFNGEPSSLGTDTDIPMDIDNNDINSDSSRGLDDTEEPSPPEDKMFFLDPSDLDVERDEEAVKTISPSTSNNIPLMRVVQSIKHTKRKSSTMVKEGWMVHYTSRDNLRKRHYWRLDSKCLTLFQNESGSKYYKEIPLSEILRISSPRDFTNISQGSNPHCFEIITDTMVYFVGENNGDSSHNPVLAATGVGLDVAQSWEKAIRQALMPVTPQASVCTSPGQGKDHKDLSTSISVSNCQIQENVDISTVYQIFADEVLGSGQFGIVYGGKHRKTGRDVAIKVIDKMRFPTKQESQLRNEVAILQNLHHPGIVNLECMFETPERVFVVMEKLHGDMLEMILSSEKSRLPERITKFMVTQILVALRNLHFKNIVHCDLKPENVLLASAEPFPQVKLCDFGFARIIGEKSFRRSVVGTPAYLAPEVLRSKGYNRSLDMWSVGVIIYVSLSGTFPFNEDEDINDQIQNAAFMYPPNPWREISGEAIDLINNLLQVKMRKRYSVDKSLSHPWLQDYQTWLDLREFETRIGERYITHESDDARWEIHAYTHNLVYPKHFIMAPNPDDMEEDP

382 unique human kinases [7] = target: T7, 382 unique human kinases (Homo sapiens, UniProt P16234, D842V); conditions: PDGFRa (D842V), [ATP] 1 µM, compound 10 uM; for remaining activity at 10 µM: read-out: % Enzyme Activity (relative to DMSO controls)
T7 construct: purchased Reaction Biology (HotSpot contract assay)
T7 sequence (P16234 24-1089 D842V): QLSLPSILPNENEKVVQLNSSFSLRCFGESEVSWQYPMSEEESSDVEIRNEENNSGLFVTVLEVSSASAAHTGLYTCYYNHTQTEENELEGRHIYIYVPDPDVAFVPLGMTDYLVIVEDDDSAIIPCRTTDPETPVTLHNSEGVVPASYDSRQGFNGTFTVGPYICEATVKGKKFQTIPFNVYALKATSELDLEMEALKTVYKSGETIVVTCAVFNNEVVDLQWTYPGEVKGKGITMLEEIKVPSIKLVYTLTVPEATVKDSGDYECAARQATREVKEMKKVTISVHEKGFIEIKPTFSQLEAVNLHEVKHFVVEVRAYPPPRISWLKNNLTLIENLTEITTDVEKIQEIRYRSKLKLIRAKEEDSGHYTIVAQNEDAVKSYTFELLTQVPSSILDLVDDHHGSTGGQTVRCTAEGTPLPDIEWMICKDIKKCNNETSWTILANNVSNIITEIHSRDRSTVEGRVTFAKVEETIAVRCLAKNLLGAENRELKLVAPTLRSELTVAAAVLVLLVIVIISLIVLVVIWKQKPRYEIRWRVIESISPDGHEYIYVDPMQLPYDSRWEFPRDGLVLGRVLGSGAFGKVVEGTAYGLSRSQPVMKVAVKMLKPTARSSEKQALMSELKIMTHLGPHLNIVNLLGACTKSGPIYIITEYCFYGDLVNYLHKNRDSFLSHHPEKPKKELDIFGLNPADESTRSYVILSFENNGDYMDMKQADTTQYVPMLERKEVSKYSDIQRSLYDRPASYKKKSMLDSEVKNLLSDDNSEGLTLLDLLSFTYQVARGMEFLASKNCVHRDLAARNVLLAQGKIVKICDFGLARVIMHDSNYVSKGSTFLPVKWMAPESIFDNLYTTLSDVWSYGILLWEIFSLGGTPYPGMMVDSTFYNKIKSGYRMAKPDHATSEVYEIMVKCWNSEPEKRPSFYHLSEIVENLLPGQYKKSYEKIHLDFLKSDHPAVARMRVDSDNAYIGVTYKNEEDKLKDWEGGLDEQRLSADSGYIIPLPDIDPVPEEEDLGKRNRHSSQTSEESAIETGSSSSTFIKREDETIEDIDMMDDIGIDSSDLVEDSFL

382 unique human kinases [8] = target: T8, 382 unique human kinases (Homo sapiens, UniProt Q16539, T106M); conditions: P38a (T106M), 10 uM; for remaining activity at 10 µM: read-out: % Enzyme Activity (relative to DMSO controls)
T8 construct: purchased Reaction Biology (HotSpot contract assay)
T8 sequence (Q16539 whole entry T106M): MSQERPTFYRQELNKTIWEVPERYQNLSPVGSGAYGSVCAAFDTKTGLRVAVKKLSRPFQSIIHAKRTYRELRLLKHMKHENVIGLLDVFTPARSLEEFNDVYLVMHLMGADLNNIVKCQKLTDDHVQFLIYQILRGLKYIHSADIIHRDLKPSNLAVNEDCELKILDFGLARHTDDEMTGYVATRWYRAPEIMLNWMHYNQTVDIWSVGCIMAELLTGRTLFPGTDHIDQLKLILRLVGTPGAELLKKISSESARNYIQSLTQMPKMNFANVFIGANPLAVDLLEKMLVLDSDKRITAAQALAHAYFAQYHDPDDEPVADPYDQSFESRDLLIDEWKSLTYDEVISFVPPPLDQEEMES

382 unique human kinases [9] = target: T9, 382 unique human kinases (Homo sapiens, UniProt P22455, N535K); conditions: FGFR4 (N535K), 10 uM; for remaining activity at 10 µM: read-out: % Enzyme Activity (relative to DMSO controls)
T9 construct: purchased Reaction Biology (HotSpot contract assay)
T9 sequence (P22455 22-802 N535K): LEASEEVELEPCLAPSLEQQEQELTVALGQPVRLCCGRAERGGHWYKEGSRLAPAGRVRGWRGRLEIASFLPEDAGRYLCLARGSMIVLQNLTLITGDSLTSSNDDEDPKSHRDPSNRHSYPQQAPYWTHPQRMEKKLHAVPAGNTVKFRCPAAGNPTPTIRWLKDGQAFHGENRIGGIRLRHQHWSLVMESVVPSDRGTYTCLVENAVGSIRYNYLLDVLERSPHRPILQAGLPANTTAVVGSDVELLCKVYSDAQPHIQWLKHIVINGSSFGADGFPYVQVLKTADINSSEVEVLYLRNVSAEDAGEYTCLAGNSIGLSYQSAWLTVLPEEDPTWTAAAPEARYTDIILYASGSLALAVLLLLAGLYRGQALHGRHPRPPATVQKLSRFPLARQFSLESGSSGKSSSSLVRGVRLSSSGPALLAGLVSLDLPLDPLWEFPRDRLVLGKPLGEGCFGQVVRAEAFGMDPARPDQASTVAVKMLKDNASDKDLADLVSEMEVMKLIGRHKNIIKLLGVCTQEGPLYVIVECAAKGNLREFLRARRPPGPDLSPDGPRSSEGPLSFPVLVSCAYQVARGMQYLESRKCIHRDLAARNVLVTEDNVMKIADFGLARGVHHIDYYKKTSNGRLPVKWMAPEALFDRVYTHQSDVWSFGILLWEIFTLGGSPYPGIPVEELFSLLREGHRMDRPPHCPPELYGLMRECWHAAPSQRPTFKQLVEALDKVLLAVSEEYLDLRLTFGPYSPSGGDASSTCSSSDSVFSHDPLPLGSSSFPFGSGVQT

SMILES | remaining activity at 10 µM (382 unique human kinases [1]) [%] | remaining activity at 10 µM (382 unique human kinases [2]) [%] | remaining activity at 10 µM (382 unique human kinases [3]) [%] | remaining activity at 10 µM (382 unique human kinases [4]) [%] | remaining activity at 10 µM (382 unique human kinases [5]) [%] | remaining activity at 10 µM (382 unique human kinases [6]) [%] | remaining activity at 10 µM (382 unique human kinases [7]) [%] | remaining activity at 10 µM (382 unique human kinases [8]) [%] | remaining activity at 10 µM (382 unique human kinases [9]) [%] | % Enzyme Activity (relative to DMSO controls) (382 unique human kinases [1]) [%] | % Enzyme Activity (relative to DMSO controls) (382 unique human kinases [2]) [%] | % Enzyme Activity (relative to DMSO controls) (382 unique human kinases [3]) [%] | % Enzyme Activity (relative to DMSO controls) (382 unique human kinases [4]) [%] | % Enzyme Activity (relative to DMSO controls) (382 unique human kinases [5]) [%] | % Enzyme Activity (relative to DMSO controls) (382 unique human kinases [6]) [%] | % Enzyme Activity (relative to DMSO controls) (382 unique human kinases [7]) [%] | % Enzyme Activity (relative to DMSO controls) (382 unique human kinases [8]) [%] | % Enzyme Activity (relative to DMSO controls) (382 unique human kinases [9]) [%]
CC(C)c1cc(-c2n[nH]c(=O)n2-c2ccc3c(ccn3C)c2)c(O)cc1O [Ganetespib (STA9090)] | 92.2 | 72.7 | 61.1 | 92.1 |  |  |  |  |  |  |  |  |  |  |  |  |  | 
CC(C)c1cc(-c2n[nH]c(=O)n2-c2ccc3c(ccn3C)c2)c(O)cc1O [Ganetespib] |  |  |  |  | 72.1 | 54.7 | 76.2 | 95.8 | 101 |  |  |  |  |  |  |  |  | 
CCNC(=O)c1noc(-c2cc(C(C)C)c(O)cc2O)c1-c1ccc(CN2CCOCC2)cc1 [Luminespib (AUY-922)] | 101 | 98.6 | 99.5 | 83.2 |  |  |  |  |  | 98.95 | 96.08 | 98.43 | 81.53 |  |  |  |  | 
CCNC(=O)c1noc(-c2cc(C(C)C)c(O)cc2O)c1-c1ccc(CN2CCOCC2)cc1 [Luminespib] |  |  |  |  | 60 | 120 | 59.9 | 99.8 | 101 |  |  |  |  | 58.15 | 116.94 | 50.60 | 98.91 | 97.33
